Test results as given in patent publication US8299285B2, “Compounds for imaging and therapy” (Isis Innovation Limited, priority 2005, dated 2012).
Several values for one entry are separate records, joined by “and”; a condition that tells them apart may be missing. Identical values can stand only once. Like-named read-outs stand apart in the source and are kept apart here.

Tests used:
Type in all cases: physicochemical
[1] = Cyclic voltammetry in DMF with a glassy carbon electrode; conditions: vs SCE
Excerpt: Under the same conditions the hypoxia selective radiopharmaceutical [Cu(ATSM)] undergoes a reversible reduction at E1/2=−0.59 V.

[2] = Fluorescence emission spectra of zinc bis(thiosemicarbazone) complexes (Zn[BTSCs]); conditions: for Fluorescence Emission λmax(2): peak (2), associated with the BTSC backbone; for fluorescence peak associated with the phenyl ring: FIG. 2; for Fluorescence Emission λmax(1): peak (1), associated with the phenyl component
Procedure: (§1) UV/Vis and fluorescence spectra were measured with a Perkin Elmer Lamda 19 spectrometer and a Hitachi F-4500 fluorescence spectrophotometer respectively.
In addition to the fluorescence band around 550 nm the Zn[ATS(R)/P-carb] complexes show a second band with at λma 340 nm. This may be associated with the fluorescence of the terminal benzoic acid group.
Fluorescence emission of Zn[ATS(R)/P-Cart] for excitation with DMSO at 300 nm.
To further investigate the effect of addition of a phenyl group onto zinc [BTSC], complexes differing only by the presence of a phenyl group were compared; see FIG. 2.
The Zn[GT(Et)] peak at 335 nm, is a Raman scattering peak. The Zn[PGTS(Et)] peak at 342 nm and the Zn[GTS(Ph)] peak at 397 nm are due to fluorescence associated with the phenyl ring. These peaks are readily differentiated; true fluorescence emission peaks (λmax,) remain static over a range of excitation wavelengths whereas Raman peaks (λmax) vary, as described by Wayne, R. P., in Principles and Applications of Photochemistry, 1986.
(§2) The following table gives the position of λmax for the fluorescence emission spectra and the second and third UV/vis Absorptions for a range of Zn[BTSCs]
Fluorescence peak (1) between 340 and 400 nm, associated with the phenyl component and a second, fluorescence peak (2), present in all complexes between 530 and 570 nm, associated with the BTSC backbone. The intensity of fluorescence peak (1) was always less than that of fluorescence peak (2). Fluorescence peak (2) for the all the phenyl complexes appear at longer wavelengths as these have longer delocalised π systems than their alkyl substituted counterparts.

[3] = UV/Vis absorption of Zn[BTSCs]; conditions: for UV/Vis Absorption λmax(2): second UV/vis absorption; for UV/Vis Absorption λmax(3): third UV/vis absorption
Procedure: as §1
The co-ordination of BTSCs to zinc produces an extended delocalised system. Zn[ATSM] was the first of these complexes observed to be fluorescent (Emission: λmax=557 nm) and with UV/Vis absorptions at 308 and 429 nm, in line with the predictions of DFT calculations. A third absorption predicted by DFT at below 300 nm was not observed due to limitations of the spectrometer.
as §2

[4] = UV/vis spectroscopy of complexes 1-13; conditions: for λmax (nm) / λmax (nm), (higher wavelength absorption peak, lowest energy transition): DMSO, 0.001 mmol concentration; for ε (mol^-1 dm^3 cm^-1): molar absorption coefficient of the higher wavelength absorption peak, Beer-Lambert law
Procedure: as §1
(§3) The optical properties of a range of mono- and binuclear complexes derived from Zn[ATSM/A] (see the table below) were measured by electronic absorption (UV/vis) and fluorescence spectroscopy.
UV/vis spectroscopy: electronic absorption spectra were recorded in DMSO at 0.1, 0.01 and 0.001 mmol concentrations. Values of λmax were obtained from spectra of solutions at 0.001 mmol concentration, as this is sufficiently dilute to enable intermolecular interactions to be neglected.

[5] = Fluorescence spectroscopy of complexes 1-13; conditions: for fluorescence emission λmax /nm / Relative intensity / Relative intensity (values in parentheses): excited at 475 nm; for fluorescence emission λmax /nm / Relative intensity: 0.01 mmol solutions in DMSO; for Relative intensity / Relative intensity (values in parentheses): relative to complex 3; for increase in fluorescence intensity relative to Zn[ATSM] and Zn[ATSM/A]: fluorescence emission; for fluorescence strength: 0.01 mmol concentrations in DMSO; for Relative intensity (values in parentheses): 0.1 mmol solutions
Procedure: as §1, §3
Fluorescence spectroscopy: the fluorescence of complexes 1-13 was measured at 0.1, 0.01 and 0.001 mmol concentrations by exciting at a range of wavelengths from 300 nm to 500 n. At 0.1 mmol and 0.01 mmol concentrations all of the complexes show emissions between 534 nm and 604 nm. […] Values of λmax and the intensity of the fluorescence emission relative to that of complex 3 when excited at 475 nm for complexes 1-13 are give in the following table.
All values relate to 0.01 mmol solutions in DMSO. (a) The values in parentheses refer to 0.1 mmol solutions.

[6] = octanol/water partition coefficient (log P)
Excerpt: Modification of the substituents present on the bis(thiosemicarbazone) ligand can be used to control, for example, the lipophilicity of the ligand and resulting complex. For example, lipophilicity can be increased with increasing alkyl substitution of the conjugated ligand backbone, particularly in the groups R2, R2′, L1, L1′, R1 and R1′.

[7] = Fluorescence of Zn[ATS(Me)/A-T-Amino-BTAP] and its precursors; conditions: 475 nm, DMSO, 0.01 mM
Procedure: as §1
The fluorescence emission spectrum of Zn[ATS(Me)/A-T-Amino-BTAP] can be examined as two regions 400-500 nm, predominantly benzothiazole fluorescence and 490-790 nm, predominantly the zinc (BTSC) fluorescence.
FIGS. 3 and 4 show the fluorescence emission spectra (a) for Amino-BTAP, 4-Aldehydrophenylimino-BTAP and Zn[ATS(Me)/A-T-Amino-BTAP], (375 nm, D MSO, 0.01 mM); and (b) for Zn[ATS(Me)/A-T-Amino-BTAP], Zn[ATS(Me)/A] and Zn[ATS(Me)/A-T], (475 nm. DMSO, 0.01 mM).

[8] = wavelengths greater than 300 nm

Molecule	λmax (nm), (higher wavelength absorption peak, lowest energy transition) [4]	λmax (nm) [4, 8]	ε (mol^-1 dm^3 cm^-1) [4]	fluorescence emission λmax /nm [5]	Relative intensity [5]	also measured
CN=C([S-])N/N=C(C)/C(C)=N/NC([S-])=NC.[Cu+2] [[Cu(ATSM)], Cu[ATSM], reference compound]	–	–	–	–	–	E1/2 of reduction (Cu(II) to Cu(I)) [1]: −0.59 V
CCNC1=N[N+]2=CC=[N+]3N=C(NCC)[S][Zn-2]23[S]1 [Zn[GTS(Et)]]	–	–	–	–	–	Fluorescence Emission λmax(2) [2]: 550 nm; UV/Vis Absorption λmax(2) [3]: 323 nm; UV/Vis Absorption λmax(3) [3]: 445 nm
CNC1=NN=C(C)C(C)=NN=C(N/N=C/c2c(O)ccc3ccccc23)[S][Zn][S]1 [Complex 6, Zn[ATSM/A-2-hydroxynaphthaldehyde]]	460 nm	334 nm	62183 mol^-1 dm^3 cm^-1	558 nm	2.61	λmax (nm) [4]: 379 nm
CNC([S-])=NN=CC=NN=C([S-])NC.[Zn+2] [Zn[GTS(Me)]]	–	–	–	–	–	Fluorescence Emission λmax(2) [2]: 550 nm; UV/Vis Absorption λmax(2) [3]: 334 nm; UV/Vis Absorption λmax(3) [3]: 446 nm
CCNC1=N[N+]2=CC(c3ccccc3)=[N+]3N=C(NCC)[S][Zn-2]23[S]1 (stereo not drawn) [Zn PGTS(Et), Zn [PGTS(Et)]]	–	–	–	–	–	fluorescence peak associated with the phenyl ring [2]: 342 nm; Fluorescence Emission λmax(1) [2]: 391 nm; Fluorescence Emission λmax(2) [2]: 567 nm; UV/Vis Absorption λmax(2) [3]: 331 nm; UV/Vis Absorption λmax(3) [3]: 466 nm
CNC1=NN=C(C)C(C)=NN=C(N/N=C/C(=O)c2ccccc2)[S][Zn][S]1 [Complex 9, Zn[ATSM/A-phenylglyoxal]]	474 nm	341 nm	46157 mol^-1 dm^3 cm^-1	605 nm	0.19	–
CNC1=NN=C(C)C(C)=NN=C(N/N=C(\C)C(C)=O)[S][Zn][S]1 [Complex 8, Zn[ATSM/A-butane-2,3-dione]]	455 nm	323 nm	35594 mol^-1 dm^3 cm^-1	561 nm	0.33	–
CC(C=NNC(=S)N(C)C)=NNC(=S)N(C)C.[Cu] [Cu[PTSM2]]	–	–	–	–	–	log P [6]: 3.18
CNC1=NN=C(C)C(C)=NN=C(N/N=C/c2ccc(C=O)cc2)[S][Zn][S]1 [Complex 10, Zn[ATSM/A-terephthalaldehyde]]	468 nm	–	49912 mol^-1 dm^3 cm^-1	584 nm	0.23	fluorescence intensity in the zinc complex region, versus Zn[ATS(Me)/A-T-Amino-BTAP] [7]: approximately tenfold lower; rank of fluorescence emission curve intensity, FIG. 4 (b) [7]: lowest intensity; λmax (nm) [4]: 364 nm
CNC1=NN=C(C)C(C)=NN=C(N/N=C/C=N/NC2=NN=C(C)C(C)=NN=C(NC)[S][Zn][S]2)[S][Zn][S]1 [Complex 11, Zn2[ATSM/A-glyoxal-ATSM/A]]	489 nm	330 nm	126450 mol^-1 dm^3 cm^-1	558 nm	2.46	increase in fluorescence intensity relative to Zn[ATSM] and Zn[ATSM/A] [5]: almost thirty-fold increase
CCCN(CCC)c1ccc(/C=N/NC2=NN=C(C)C(C)=NN=C(NC)[S][Zn][S]2)cc1 [Complex 7, Zn[ATSM/A-4-(di-n-propylamino)benzaldehyde]]	465 nm	321 nm	75127 mol^-1 dm^3 cm^-1	578 nm	2.85	λmax (nm) [4]: 370 nm
CNC1=NN=C(C)C(C)=NN=C(NN)[S][Zn][S]1 [Complex 2, Zn[ATSM/A]]	429 nm	315 nm	29690 mol^-1 dm^3 cm^-1	548 nm	0.10	fluorescence intensity in the zinc complex region, versus Zn[ATS(Me)/A-T-Amino-BTAP] [7]: approximately tenfold lower; rank of fluorescence emission curve intensity, FIG. 4 (b) [7]: second highest intensity; fluorescence strength [5]: comparatively weak fluorescence; Relative intensity (values in parentheses) [5]: 0.32
CNC1=NN=C(C)C(C)=NN=C(N/N=C/c2cccc(/C=N/NC3=NN=C(C)C(C)=NN=C(NC)[S][Zn][S]3)c2)[S][Zn][S]1 [Complex 13, Zn2[ATSM/A-isopthalaldehyde-ZnATSM/A]]	457 nm	339 nm	79475 mol^-1 dm^3 cm^-1	567 nm	2.65	increase in fluorescence intensity relative to Zn[ATSM] and Zn[ATSM/A] [5]: almost thirty-fold increase
CNC1=NN=C(C)C(C)=NN=C(N/N=C/c2ccccc2O)[S][Zn][S]1 [Complex 5, Zn[ATSM/A-salicylaldehyde]]	455 nm	346 nm	51172 mol^-1 dm^3 cm^-1	548 nm	0.95	–
CNC1=NN=C(C)C(C)=NN=C(N/N=C/c2ccco2)[S][Zn][S]1 [Complex 4, Zn[ATSM/A-2-furaldehyde]]	455 nm	340 nm	36939 mol^-1 dm^3 cm^-1	551 nm	1.05	–
Zn[ATSM] [Complex 1, reference compound]	429 nm	308 nm	29444 mol^-1 dm^3 cm^-1	534 nm	0.09	Emission λmax [2]: 557 nm; UV/Vis absorptions [3]: 308 nm and 429 nm; fluorescence strength [5]: comparatively weak fluorescence; Relative intensity (values in parentheses) [5]: 0.35
C1=[N+]2N=C(Nc3ccccc3)[S][Zn-2]23[S]C(Nc2ccccc2)=N[N+]3=C1 [Zn[GTS(Ph)]]	–	–	–	–	–	fluorescence peak associated with the phenyl ring [2]: 397 nm; Fluorescence Emission λmax(1) [2]: 340 nm; Fluorescence Emission λmax(2) [2]: 575 nm; UV/Vis Absorption λmax(2) [3]: 342 nm; UV/Vis Absorption λmax(3) [3]: 469 nm
CNC1=NN=C(C)C(C)=NN=C(N/N=C/c2ccccc2)[S][Zn][S]1 [Complex 3, Zn[ATSM/A-benzaldehyde]]	451 nm	333 nm	40016 mol^-1 dm^3 cm^-1	553 nm	1.00	–
CC1=[N+]2N=C(N)[S][Cu-2]23[S]C(N)=N[N+]3=C1 (stereo not drawn) [Cu[PTS]]	–	–	–	–	–	log P ([6]; P is the octanol/water partition coefficient): 0.76
